The text below walks through data of US20110320392A1, “METHODS FOR PREDICTING CANCER RESPONSE TO EGFR INHIBITORS” (priority 2009, published 2011).

Each structure is given as a SMILES string.

One assay deals with A549. Put plainly: erlotinib sensitivity, apoptosis assay after 48 h. The settings on record: NSCLC cell line A549, apoptosis assay after 48 h. In kind it is cell-based, human. Here is the method:
(§1) The lung cancer cell lines were analyzed for in vitro sensitivity to the EGFR-tyrosine kinase inhibitor erlotinib. Cell lines were designated as “resistant” or sensitive” based upon an empirically determined threshold.
(§2) The panel of NSCLC cell lines were separated into sensitive and resistant to erlotinib treatment using an apoptosis assay after 48 h as a measure (Balko et al., 2006). […] All cell lines were passaged as previously published and harvested after 2 days growth in serum-containing media (Balko et al., 2006). Lung cancer cell lines sensitive to erlotinib (H322 and HCC827) and resistant to erlotinib (H2122 and H820) and pancreatic cancer cell lines sensitive to erlotinib (Aspc-1 and Bxpc-3) and resistant to erlotinib (Mia PaCa-2 and Panc-1) were used for validation of the predictor, as previously described, again harvested after 2 days growth in serum-containing media (Tzeng et al., 2007).

The subject of another assay is H1650. Put plainly: erlotinib sensitivity, apoptosis assay after 48 h. In kind it is cell-based, human. The settings on record: NSCLC cell line H1650, apoptosis assay after 48 h. The procedure: as §1, §2
The test system of a further assay is H1975. Put plainly: erlotinib sensitivity, apoptosis assay after 48 h. The format is cell-based, human. The settings on record: NSCLC cell line H1975, apoptosis assay after 48 h. Here is the method: as §1, §2
A further assay deals with H3255. Put plainly: erlotinib sensitivity, apoptosis assay after 48 h. The format is cell-based, human. Conditions: NSCLC cell line H3255, apoptosis assay after 48 h. The procedure: as §1, §2
Another assay has as its system H358. Put plainly: erlotinib sensitivity, apoptosis assay after 48 h. In kind it is cell-based, human. The settings on record: NSCLC cell line H358, apoptosis assay after 48 h. The procedure:
as §1, §2

The next assay relates to H460. Put plainly: erlotinib sensitivity, apoptosis assay after 48 h. In kind it is cell-based, human. Conditions: NSCLC cell line H460, apoptosis assay after 48 h. The procedure: as §1, §2
In the next assay the test system is PC-9. Put plainly: erlotinib sensitivity, apoptosis assay after 48 h. In kind it is cell-based, human. The settings on record: NSCLC cell line PC-9, apoptosis assay after 48 h. Here is the method:
as §1, §2

In the next assay the test system is UKY-29. Put plainly: erlotinib sensitivity, apoptosis assay after 48 h. In kind it is cell-based, human. Conditions: NSCLC cell line UKY-29, apoptosis assay after 48 h. Here is the method:
as §1, §2

The next assay deals with H2122. Put plainly: erlotinib sensitivity of validation lung cancer cell line. Conditions: lung cancer cell line H2122, validation set. The format is cell-based, human. Here is the method:
as §2

In another assay the test system is H322. Described as above. In kind it is cell-based, human. The settings on record: lung cancer cell line H322, validation set. Here is the method:
as §2

The subject of a further assay is H820. The assay is described as above. The format is cell-based, human. Conditions: lung cancer cell line H820, validation set. The procedure: as §2
For another assay, the system named is HCC827. Described as above. Conditions: lung cancer cell line HCC827, validation set. In kind it is cell-based, human. Here is the method: as §2
Another assay deals with Aspc-1. Conditions: pancreatic cancer cell line Aspc-1, validation set (Tzeng et al., 2007); cited from earlier work.
The subject of a further assay is Bxpc-3. Conditions: pancreatic cancer cell line Bxpc-3, validation set (Tzeng et al., 2007); cited from earlier work.
The next assay has as its system Mia PaCa-2. The settings on record: pancreatic cancer cell line Mia PaCa-2, validation set (Tzeng et al., 2007); cited from earlier work.
A further assay concerns Panc-1. Conditions: pancreatic cancer cell line Panc-1, validation set (Tzeng et al., 2007); cited from earlier work.

`C#Cc1cccc(Nc2ncnc3cc(OCCOC)c(OCCOC)cc23)c1` [erlotinib]: the “sensitivity to erlotinib treatment” value in the assay with A549 is “Resistant”; in the assay with H1650 it was “sensitive”; in the assay with H1975 it was “Resistant”; in the assay on H3255, “sensitive”; in the assay with H358 it was “sensitive”; with H460, “Resistant”. Also, the “sensitivity to erlotinib treatment” value in the assay with PC-9 is “sensitive”; in the assay with UKY-29 it was “Resistant”. In addition, the sensitivity to erlotinib entry in the assay with H2122 is “resistant”; with H322 it was “sensitive”; in the assay on H820 it was “resistant”; with HCC827, “sensitive”; in the assay on Aspc-1, “sensitive”; with Bxpc-3 it was “sensitive”. Also, the sensitivity to erlotinib result with Mia PaCa-2 and in the assay with Panc-1 was “resistant” each time.
